Assay [1] relates to NFAT. The assay is described as follows: NFAT translocation in ILC2 by confocal microscopy. Format: cell-based, mouse. The conditions noted are these: NmU23 100 ng/mL, 90 minutes, Lamina Propria ILC2, anti-NFAT2 staining (FIG. 11c). The protocol:
FIGS. 11a-11b: ILC2 were FBS deprived for 2 hours prior to treatment with either (FIG. 11a) 11R-VIVIT (inhibits NFAT activation) (10 μM) or (FIG. 11b) cyclosporin A (CsA, […]). Expression of type 2 cytokines were measured by quantitative RT-PCR (FIGS. 11a,11b). n=3-6. FIG. 11c, Deprivated ILC2 from Lamina Propria were stimulated 90′ with NmU23 (100 ng/mL), fixed, permeabilized and stained with anti-NFAT2 monoclonal antibody (abcam). Cells were analyzed by confocal microscopy. *P<0.05; **P<0.01; ***P<0.001; ****P<0.0001; ns not significant.

Assay [2] has as its system intestinal ILC2s. The assay is described as follows: Ki67 expression in intestinal ILC2s after in vitro stimulation with NmU23. In kind it is cell-based, mouse. The conditions noted are these: NmU23 100 ng/mL overnight. The protocol:
FIGS. 10a-10d: FIG. 10a, Ki67 expression in intestinal ILC2s after an overnight in vitro stimulation with NmU23 alone (100 ng/mL, Phoenix Pharmaceutical) or NmU23 together with the survival cytokines Interleukin (IL)-2 and/or IL-7 (10 ng/mL). FIG. 10b, Ki67 expression in intestine ILC2 after in vivo administration of NmU23 (4 g/day during 2 days). n=5. FIG. 10c, ILC2-derived type 2 cytokines (IL-5, IL-13 and Amphiregulin (Areg)) in sorted intestine ILC2 after an overnight stimulation with NmU23, mouse recombinant IL-25 or IL-33 (R&D) (10, 50 and 100 ng/mL). Negative control: unstimulated ILC2, Positive control: ILC2 activated with phorbol 12-myristate 13-acetate (PMA, 50 ng/ml) plus ionomycin (500 ng/ml). n=3. FIG. 10d, Dot plots representative of the cytokine production with increasing dose of NmU23, rIL-25 and rIL-33. *P<0.05; **P<0.01; ***P<0.001; ****P<0.0001; ns not significant.
For in vitro experiments, purified lung and small intestine lamina propria ILC2s were FBS starved for 2 hours prior to stimulation and cultured in complete RPMI (supplemented with 10% foetal bovine serum (FBS), 1% hepes, sodium pyruvate, glutamine, streptomycin and penicillin) at 37° C. […] For in vivo experiments, B6 mice were injected intraperitoneal with NmU23 peptide (2 g/day) during Nippostrongylus brasiliensis infection or with a single dose of NmU23 (20 μg) and analyzed after 8 hours. […]

For assay [3], the system named is ILC2s. The assay is described as follows: In vivo administration of NmU23, ILC2- and T cell-derived type 2 cytokines. Also noted: species or system mouse. The conditions noted are these: single dose NmU23 20 μg intraperitoneal, analyzed after 8 hours, vs PBS. The procedure:
For in vitro experiments, purified lung and small intestine lamina propria ILC2s were FBS starved for 2 hours prior to stimulation and cultured in complete RPMI (supplemented with 10% foetal bovine serum (FBS), 1% hepes, sodium pyruvate, glutamine, streptomycin and penicillin) at 37° C. For mRNA analysis, ILC2s were stimulated overnight with recombinant mouse Neuromedin U 23 peptide (NmU23, 100 ng/mL; Phoenix pharmaceuticals). Both NmU23-stimulated and control ILC2s were cultured in the presence of IL-2 and IL-7 (10 ng/mL; Peprotech). ILC2s were lysed using RLT buffer (Qiagen). For cytokine protein analysis, ILC2s were incubated exclusively with brefeldin A (eBioscience) for 12 hours prior to intracellular staining. For in vivo experiments, B6 mice were injected intraperitoneal with NmU23 peptide (2 g/day) during Nippostrongylus brasiliensis infection or with a single dose of NmU23 (20 μg) and analyzed after 8 hours. Control mice were treated with PBS alone.
Intracellular staining was performed using IC fixation/permeabilization kit (eBioscience). Flow cytometry analysis and cell sorting were performed using BD LSRFORTESSA and BD FACSAria flow cytometers (BD Biosciences). Data analysis was done using FlowJo software (Tristar). Sorted populations were >95% pure. […]

Take “recombinant mouse Neuromedin U 23 peptide (FKAEYQSPSVGQSKGYFLFRPRN; listed as Mus musculus) [NmU23, NMUR1 agonist neuropeptide, Phoenix pharmaceuticals]”: the “translocation of NFAT in ILC2” value in assay [1] is recorded as “efficient translocation of NFAT from the cytoplasm to the nucleus”. Moreover, the “ILC2 proliferation as measured by Ki67, in vitro” value in assay [2] is reported as “increased ILC2 proliferation”. In assay [3], the “T helper cell-derived type 2 cytokines after in vivo administration” value is on record as “unperturbed”; the “type 2 cytokine production from ILC2s after in vivo administration” value is “immediate and selective type 2 cytokine production”.

The values are drawn from patent US20190358264A1, “METHODS OF TREATING DISEASES ASSOCIATED WITH ILC2 CELLS” (Limm Therapeutics, SA, priority 2016, published 2019).
